Source: paper PMC9490041, “Determinants of affinity, specificity, and phase separation in a supramodule from Post-synaptic density protein 95” (iScience, 2022)
Like-named read-outs stand apart in the source and are kept apart here. Ends that are not written are not given here.

How the values were obtained:
Assay in all cases: FP displacement (competition) of FITC-15 AA CRIPT by library peptide, IC50 and Ki
PSG (PSD-95) = conditions: for IC50: read-out: IC50 (µM), PSG
PSG G322A (PSD-95) = conditions: for IC50: read-out: IC50 (µM), PSG G322A; for Ki: read-out: Ki (µM), PSG G322A
PSG G322A G335A (PSD-95) = conditions: for IC50: read-out: IC50 (µM), PSG G322A G335A; for Ki: read-out: Ki (µM), PSG G322A G335A
PSG G335A (PSD-95) = conditions: for IC50: read-out: IC50 (µM), PSG G335A; for Ki: read-out: Ki (µM), PSG G335A
[1] = FP displacement of FITC-15 AA CRIPT probe by acetylated PSD library peptide
[2] = read-out: Ki (µM), PSG, FP displacement of FITC-15 AA CRIPT probe by acetylated PSD library peptide
[3] = FP displacement of FITC-15 AA CRIPT probe by acetylated PSD library peptide (P-13 to P0 plus extra N-terminal Y)
[4] = FP displacement of FITC-15 AA CRIPT probe by PSD library peptide, protein PSG (wild type)
[5] = read-out: Ki (µM), PSG, FP displacement of FITC-15 AA CRIPT probe by PSD library peptide, protein PSG (wild type)
[6] = FP displacement of FITC-15 AA CRIPT probe by PSD library peptide, protein PSG G322A
[7] = FP displacement of FITC-15 AA CRIPT probe by PSD library peptide, protein PSG G322A G335A
[8] = FP displacement of FITC-15 AA CRIPT probe by PSD library peptide, protein PSG G335A

Molecule: CC(=O)N[C@@H](Cc1ccc(O)cc1)C(=O)N[C@@H](CC(C)C)C(=O)N1CCC[C@H]1C(=O)N[C@@H](CC(C)C)C(=O)N[C@@H](CC(=O)O)C(=O)N[C@H](C(=O)N[C@@H](CCC(N)=O)C(=O)N[C@@H](CCC(=O)O)C(=O)NCC(=O)N[C@@H](CC(=O)O)C(=O)N[C@@H](Cc1ccccc1)C(=O)N[C@@H](CCC(N)=O)C(=O)N[C@H](C(=O)N[C@@H](CCC(=O)O)C(=O)N[C@H](C(=O)O)C(C)C)[C@@H](C)O)C(C)C [AGRB3]
- IC50 (PSG (PSD-95); [1]): 1080 µM
- Ki (PSG (PSD-95); [2]): 459 µM
- IC50 (PSG G322A (PSD-95); [1]): 342 µM
- Ki (PSG G322A (PSD-95); [1]): 148 µM
- IC50 (PSG G322A G335A (PSD-95); [3]): 534 µM
- Ki (PSG G322A G335A (PSD-95); [1]): 185 µM
- IC50 (PSG G335A (PSD-95); [1]): 1130 µM
- Ki (PSG G335A (PSD-95); [1]): 402 µM

Molecule: CSCC[C@H](NC(=O)[C@H](CCC(N)=O)NC(=O)[C@H](CC(=O)O)NC(=O)[C@H](Cc1ccc(O)cc1)NC(=O)[C@H](CC(=O)O)NC(=O)[C@@H]1CCCN1C(=O)[C@H](CO)NC(=O)[C@H](CCCCN)NC(=O)[C@H](CC(C)C)NC(=O)[C@H](Cc1ccc(O)cc1)NC(C)=O)C(=O)N[C@@H](CO)C(=O)N[C@@H](CO)C(=O)N[C@@H](CO)C(=O)N1CCC[C@H]1C(=O)N[C@@H](CS)C(=O)O [CCG5]
- IC50 (PSG (PSD-95); [1]): 1410 µM
- Ki (PSG (PSD-95); [2]): 600 µM
- IC50 (PSG G322A (PSD-95); [1]): 2060 µM
- Ki (PSG G322A (PSD-95); [1]): 894 µM
- IC50 (PSG G322A G335A (PSD-95); [3]): 2450 µM
- Ki (PSG G322A G335A (PSD-95); [1]): 847 µM
- IC50 (PSG G335A (PSD-95); [1]): 2540 µM
- Ki (PSG G335A (PSD-95); [1]): 907 µM

Molecule: CSCC[C@H](NC(=O)[C@H](CO)NC(=O)[C@H](Cc1ccc(O)cc1)NC(=O)[C@H](CC(C)C)NC(=O)[C@H](Cc1ccc(O)cc1)NC(=O)[C@H](Cc1ccc(O)cc1)NC(=O)[C@H](Cc1ccccc1)NC(=O)[C@H](Cc1ccc(O)cc1)NC(C)=O)C(=O)N[C@H](C(=O)N[C@@H](Cc1ccc(O)cc1)C(=O)N[C@H](C(=O)N[C@@H](CC(C)C)C(=O)N[C@H](C(=O)N[C@@H](CO)C(=O)N[C@@H](Cc1ccccc1)C(=O)O)C(C)C)[C@@H](C)O)C(C)C [CNIH2]
- IC50 (PSG (PSD-95); [1]): 2080 µM
- Ki (PSG (PSD-95); [2]): 888 µM
- IC50 (PSG G322A (PSD-95); [1]): 2260 µM
- Ki (PSG G322A (PSD-95); [1]): 982 µM
- IC50 (PSG G322A G335A (PSD-95); [3]): 727 µM
- Ki (PSG G322A G335A (PSD-95); [1]): 252 µM
- IC50 (PSG G335A (PSD-95); [1]): 516 µM
- Ki (PSG G335A (PSD-95); [1]): 184 µM

Molecule: CC(=O)N[C@@H](Cc1ccc(O)cc1)C(=O)N[C@@H](CCCCN)C(=O)N[C@@H](CCCCN)C(=O)N[C@H](C(=O)N[C@@H](CC(C)C)C(=O)N[C@@H](CC(=O)O)C(=O)N[C@H](C(=O)N[C@@H](CCCCN)C(=O)N[C@@H](CC(N)=O)C(=O)N[C@@H](Cc1ccc(O)cc1)C(=O)N[C@@H](CCCCN)C(=O)N[C@@H](CCC(N)=O)C(=O)N[C@H](C(=O)N[C@@H](CO)C(=O)N[C@H](C(=O)O)C(C)C)[C@@H](C)O)[C@@H](C)O)C(C)C [CRIPT]
- Ki (PSG (PSD-95); FP displacement of 5 nM FITC-15 AA CRIPT by non-labeled acetylated peptide, room temperature, Ki from IC50, technical triplicates, PSG): < 75 µM
- IC50 (PSG (PSD-95); [4]): 6 µM
- Ki (PSG (PSD-95); [5]): 2.44 µM
- IC50 (PSG G322A (PSD-95); [6]): 1.49 µM
- Ki (PSG G322A (PSD-95); [6]): 0.496 µM
- IC50 (PSG G322A G335A (PSD-95); [7]): 0.868 µM
- IC50 (PSG G335A (PSD-95); [8]): 2 µM

Molecule: CC[C@H](C)[C@H](NC(=O)[C@H](Cc1ccc(O)cc1)NC(=O)[C@H](CO)NC(=O)CNC(=O)[C@H](CO)NC(=O)[C@H](CCC(N)=O)NC(=O)[C@H](Cc1ccc(O)cc1)NC(C)=O)C(=O)N[C@@H](Cc1c[nH]c2ccccc12)C(=O)N[C@H](C(=O)N1CCC[C@H]1C(=O)N[C@@H](C)C(=O)N[C@@H](CCCCN)C(=O)N[C@@H](CCC(=O)O)C(=O)N[C@@H](CCCCN)C(=O)N[C@@H](CC(C)C)C(=O)O)C(C)C [DLG1]
- IC50 (PSG (PSD-95); [1]): 1470 µM
- Ki (PSG (PSD-95); [2]): 628 µM
- IC50 (PSG G322A (PSD-95); [1]): 1600 µM
- Ki (PSG G322A (PSD-95); [1]): 692 µM
- IC50 (PSG G322A G335A (PSD-95); [3]): 1590 µM
- Ki (PSG G322A G335A (PSD-95); [1]): 550 µM
- IC50 (PSG G335A (PSD-95); [1]): 1310 µM
- Ki (PSG G335A (PSD-95); [1]): 466 µM

Molecule: CC(=O)N[C@@H](Cc1ccc(O)cc1)C(=O)N[C@@H](CC(=O)O)C(=O)N[C@@H](CO)C(=O)N[C@H](C(=O)N[C@@H](CCC(=O)O)C(=O)N[C@@H](CCC(N)=O)C(=O)N[C@@H](CO)C(=O)N[C@@H](CC(=O)O)C(=O)N[C@H](C(=O)N[C@@H](CCCNC(=N)N)C(=O)N[C@@H](Cc1ccccc1)C(=O)N[C@@H](CO)C(=O)N[C@@H](CO)C(=O)N[C@@H](C)C(=O)N[C@H](C(=O)O)C(C)C)C(C)C)[C@@H](C)O [GPER1]
- IC50 (PSG (PSD-95); [4]): 865 µM
- Ki (PSG (PSD-95); [5]): 456 µM
- IC50 (PSG G322A (PSD-95); [6]): 190 µM
- Ki (PSG G322A (PSD-95); [6]): 82 µM
- IC50 (PSG G322A G335A (PSD-95); [7]): 238 µM
- Ki (PSG G322A G335A (PSD-95); [7]): 82 µM
- IC50 (PSG G335A (PSD-95); [8]): 499 µM
- Ki (PSG G335A (PSD-95); [8]): 178 µM

Molecule: CC(=O)N[C@@H](Cc1ccc(O)cc1)C(=O)N[C@@H](Cc1c[nH]cn1)C(=O)N[C@@H](Cc1c[nH]cn1)C(=O)N[C@H](C(=O)N[C@@H](CO)C(=O)N[C@@H](Cc1ccc(O)cc1)C(=O)N[C@H](C(=O)N[C@@H](C)C(=O)N[C@@H](CO)C(=O)N[C@@H](CCCCN)C(=O)N[C@H](C(=O)N[C@@H](CCC(=O)O)C(=O)N[C@H](C(=O)N[C@H](C(=O)N[C@H](C(=O)O)C(C)C)[C@@H](C)O)C(C)C)[C@@H](C)O)[C@@H](C)O)[C@@H](C)O [SHSA6]
- IC50 (PSG (PSD-95); [4]): 1220 µM
- Ki (PSG (PSD-95); [5]): 518 µM
- IC50 (PSG G322A (PSD-95); [6]): 2000 µM
- Ki (PSG G322A (PSD-95); [6]): 867 µM
- IC50 (PSG G322A G335A (PSD-95); [7]): 1170 µM
- Ki (PSG G322A G335A (PSD-95); [7]): 405 µM

Molecule: CC[C@H](C)[C@H](NC(=O)[C@H](CC(C)C)NC(=O)[C@H](C)NC(=O)[C@@H](NC(=O)[C@H](C)NC(=O)[C@H](Cc1ccc(O)cc1)NC(C)=O)C(C)C)C(=O)N[C@@H](C)C(=O)N[C@@H](Cc1ccc(O)cc1)C(=O)N[C@@H](CC(C)C)C(=O)N[C@@H](CO)C(=O)N[C@@H](CCCCN)C(=O)N[C@@H](CC(N)=O)C(=O)N[C@@H](CC(N)=O)C(=O)N[C@@H](Cc1c[nH]cn1)C(=O)N[C@@H](CC(C)C)C(=O)O [SYNG1]
- IC50 (PSG (PSD-95); [1]): 1440 µM
- Ki (PSG (PSD-95); [2]): 613 µM
- IC50 (PSG G322A G335A (PSD-95); [3]): 733 µM
- Ki (PSG G322A G335A (PSD-95); [1]): 254 µM
- IC50 (PSG G335A (PSD-95); [1]): 663 µM
- Ki (PSG G335A (PSD-95); [1]): 236 µM

Molecule: Ac-YDKPLSKKHAHSVNF [PDLI5]
- IC50 (PSG (PSD-95); [1]): 2060 µM
- Ki (PSG (PSD-95); [2]): 879 µM
- IC50 (PSG G322A G335A (PSD-95); [3]): 973 µM
- Ki (PSG G322A G335A (PSD-95); [1]): 337 µM
- IC50 (PSG G335A (PSD-95); [1]): 2060 µM
- Ki (PSG G335A (PSD-95); [1]): 736 µM

Molecule: Ac-YEKAASREEPIEWEF [CUX1]
- IC50 (PSG G322A (PSD-95); [6]): 1560 µM
- Ki (PSG G322A (PSD-95); [6]): 679 µM
- IC50 (PSG G322A G335A (PSD-95); [7]): 1280 µM
- IC50 (PSG G335A (PSD-95); [8]): 1360 µM
- Ki (PSG G335A (PSD-95); [8]): 485 µM

Molecule: Ac-YEPPEPKKSRRSVLL [CDC42]
- IC50 (PSG G322A (PSD-95); [6]): 952 µM
- IC50 (PSG G322A G335A (PSD-95); [7]): 1100 µM
- Ki (PSG G322A G335A (PSD-95); [7]): 381 µM
- IC50 (PSG G335A (PSD-95); [8]): 1180 µM
- Ki (PSG G335A (PSD-95); [8]): 421 µM

Molecule: Ac-YQEQNKVLWIPASPL [DLG5]
- IC50 (PSG G322A (PSD-95); [1]): 1510 µM
- Ki (PSG G322A (PSD-95); [1]): 654 µM
- IC50 (PSG G322A G335A (PSD-95); [3]): 2830 µM
- Ki (PSG G322A G335A (PSD-95); [1]): 979 µM
- IC50 (PSG G335A (PSD-95); [1]): 1020 µM
- Ki (PSG G335A (PSD-95); [1]): 365 µM

Molecule: Ac-YQSGPFIWIPSKEKL [DLG2]
- IC50 (PSG G322A (PSD-95); [1]): 1420 µM
- Ki (PSG G322A (PSD-95); [1]): 615 µM
- IC50 (PSG G322A G335A (PSD-95); [3]): 734 µM
- Ki (PSG G322A G335A (PSD-95); [1]): 254 µM
- IC50 (PSG G335A (PSD-95); [1]): 2120 µM
- Ki (PSG G335A (PSD-95); [1]): 758 µM

Molecule: Ac-YSRQHSKLLDFDDVL [NSMF]
- IC50 (PSG (PSD-95); [1]): 1390 µM
- Ki (PSG (PSD-95); [2]): 592 µM
